# Marks after values point to notes of the source that are not given here.
# Test system: subjects with occasional constipation
# Experiment: MOS SF-36 quality of life assessment, 48-week study (Example 6)
# Assay type: in vivo, human
# Procedure: A 48-week multi-center study was performed to assess the safety and efficacy of 48 μg (total daily dose) of Compound A to subjects with occasional constipation. […] After 14-day drug-free washout period, they received orally 48 μg of Compound A (24 μg of […], b.i.d) daily for 48 weeks.
# The subjects completed the Medical Outcomes Study (MOS) 36-item short form (SF-36), i.e., a conventionally used QOL assessment form, at enrollment (baseline) and end of treatment (Week 48). Components of the MOS SF-36 (Med Care 30(6),473-483, 1992) are outlined below: • Physical component: Physical Function; Role-Physical, Bodily Pain and General Health • Mental component: Vitality, Social Function, Role-Emotional and Mental Health
# Each of the 8 components was scored within the guidelines of the publisher, including the publisher's guidelines for imputing missing variables. The change from baseline in each of the 8 component scores at the end of treatment (Week 48) were recorded and evaluated with paired t-tests.
compound,measurement,setting,value
"CCCCC(F)(F)C(=O)CCC1C(O)CC(=O)C1CCCCCCC(=O)O (centres unmarked) [Compound A, 13,14-dihydro-15-keto-16,16-difluoro-PGE1]",Effect on QOL of the patients (SF-36),"48 μg/day, 48 weeks",improves the QOL
same,"SF36 Bodily Pain score, Mean",Baseline,47.53
same,"SF36 General Health score, Mean",Baseline,51.52
same,"SF36 Mental Health score, Mean",Baseline,50.60
same,"SF36 Physical Function score, Mean",Baseline,49.04
same,"SF36 Role-Emotional score, Mean",Baseline,49.52
same,"SF36 Role-Physical score, Mean",Baseline,49.75
same,"SF36 Social Function score, Mean",Baseline,50.12
same,"SF36 Vitality score, Mean",Baseline,50.61
same,"SF36 Bodily Pain score, Mean change from baseline","Week 48, 48 μg/day",3.38**
same,"SF36 General Health score, Mean change from baseline","Week 48, 48 μg/day",1.47*
same,"SF36 Mental Health score, Mean change from baseline","Week 48, 48 μg/day",1.97**
same,"SF36 Physical Function score, Mean change from baseline","Week 48, 48 μg/day",2.48**
same,"SF36 Role-Emotional score, Mean change from baseline","Week 48, 48 μg/day",1.22
same,"SF36 Role-Physical score, Mean change from baseline","Week 48, 48 μg/day",1.95**
same,"SF36 Social Function score, Mean change from baseline","Week 48, 48 μg/day",2.22**
same,"SF36 Vitality score, Mean change from baseline","Week 48, 48 μg/day",2.89**

# From patent US8748481B2, “Method for treating gastrointestinal disorder” (Sucampo AG, priority 2004, dated 2014)
